From EP1019392B1, “TRICYCLIC AMIDES USEFUL FOR INHIBITION OF G-PROTEIN FUNCTION AND FOR TREATMENT OF PROLIFERATIVE DISEASES” (SCHERING CORPORATION, priority 1995, dated 1997)

Assays:
[1] = tested on: DLD-1-BAG human colon carcinoma cells expressing as activated K-ras gene; experiment: Cell Mat Assay, DLD-1 tumor cells; assay type: cell-based; settings: Homo sapiens, DLD-1, Mat assay
[2] = tested on: DLD-1 (human colon carcinoma cells, ATCC # CCL 221); experiment: In Vivo Anti-Tumor Studies, subcutaneous DLD-1 tumors; set-up: species or system athymic nu/nu female mice; settings: Mus musculus, DLD-1, po, QID, 4 weeks, range over the listed compounds
Source text: Tumor cells (5 X 10^5 to 8 X 10^6) of DLD-1 (human colon carcinoma cells, ATCC # CCL 221) are innolculated subcutaneously into the flank of 5-6 week o;d athymic nu/nu female mice.

[3] = tested on: Human tumor cells; experiment: Soft Agar Assay (anchorage-independent growth); assay type: cell-based; settings: range over 19 tumor cell lines (K ras NIH 3T3, H ras NIH 3T3, HTB 177, HTB 173, A549, HTB 175, HTB 119, HTB 183, HPAF II, MCF-7, HBL100, Du4475, MDA MB 468, DU 145, MDA MB453, BT474, PC3, DLD I, AsPc-1), read-out: IC50 for each cell line
[4] = tested on: T24-BAG4 human bladder carcinoma cells expressing an activated H-ras gene; experiment: Cell Mat Assay, T24 tumor cells; assay type: cell-based; settings: Homo sapiens, read-out: Tumor (T-24) IC50
[5] = tested on: Ras-CVLS processing in COS monkey kidney cells; experiment: COS cell assay: inhibition of Ras-CVLS processing (Western blot); assay type: cell-based; settings: Primates, COS
[6] = tested on: SW620-BAG human colon carcinoma cells expressing an activated K-ras gene; experiment: Cell Mat Assay, SW620 tumor cells; assay type: cell-based; settings: Homo sapiens, SW-620, Mat assay
[7] = tested on: Normal human HEPM fibroblasts; experiment: Cell Mat Assay, normal cell mat; assay type: cell-based; settings: normal monolayer

Question: NC(=O)N1CCC(CC(=O)N2CCC(C3c4ncc(Br)cc4CCc4cc(Cl)cc(Br)c43)CC2)CC1 (centres unmarked) [Example 10] was tested. Which IC50 [1] did it give?
Answer: Its IC50 is under 1.6 µM.

Question: And the inhibition in vivo at 10 mg/kg ([2]; 10 mg/kg p.o.)?
Answer: The inhibition in vivo at 10 mg/kg was 7 to 50%.

Question: And the inhibition in vivo at 50 mg/kg ([2]; 50 mg/kg p.o.)?
Answer: The inhibition in vivo at 50 mg/kg was 35.4 to 83%.

Question: And the IC50 [3]?
Answer: The IC50 was 0.04 to 3 µM.

Question: What about the IC50 [4] of the same compound?
Answer: The IC50 was under 1.6 µM.

Question: And the IC50 [5]?
Answer: The IC50 was under 0.025 µM.

Question: What about the IC50 [6] of the same compound?
Answer: Its IC50 is 3.1 µM.

Question: What about the IC50 [7] of the same compound?
Answer: Its IC50 is over 25 µM.
